{"source": "paper PMC8851515", "about": "(Proceedings of the National Academy of Sciences of the …, 2022)", "target": "T1, hDHHC20 (Homo sapiens, UniProt Q5W0Z9)", "T1 sequence (Q5W0Z9 1-365)": "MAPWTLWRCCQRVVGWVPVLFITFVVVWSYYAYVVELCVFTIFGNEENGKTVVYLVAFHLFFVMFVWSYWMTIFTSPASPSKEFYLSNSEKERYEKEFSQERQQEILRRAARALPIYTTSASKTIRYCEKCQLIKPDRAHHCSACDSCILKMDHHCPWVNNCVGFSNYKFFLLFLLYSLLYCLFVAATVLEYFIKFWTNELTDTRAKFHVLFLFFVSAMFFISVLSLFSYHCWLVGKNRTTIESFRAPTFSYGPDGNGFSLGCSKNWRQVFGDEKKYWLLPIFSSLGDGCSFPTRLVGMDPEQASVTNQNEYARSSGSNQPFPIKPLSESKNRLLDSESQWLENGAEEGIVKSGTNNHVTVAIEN", "experiment": "coupled-enzyme PAT activity inhibition assay", "format": "biochemical", "note": "pIC50: −log10 of the molar value.", "data": [{"molecule": "CCCCCCCCCCCCCCC(Br)C(=O)O", "note": "(stereo not shown) [2-bromopalmitic acid]", "values": [{"measurement": "pIC50", "result": 5.35}]}]}
